Test results taken from US20200347153A1, “METHODS FOR FORMING INCLUSION COMPLEXES WITH HYDROPHILIC BETA-CYCLODEXTRIN DERIVATIVES AND COMPOSITIONS THEREOF” (priority 2019, published 2020).
Where two headings read alike, the source gives them in different places.

What was measured:
[1] = Stability studies (shelf life, visible changes); assay type: physicochemical; settings: visible changes; for Stability of Actives at 40° C.: 40° C. accelerated stability
Method: The effects of HPBCD on the shelf life stability of each active agent is studied at pre-determined temperatures for 11 weeks. Real time stability is observed at −17° C., 5° C. and 25° C., and accelerated stability is observed at 40° C. For accelerated stability, one day at 40° C. is equivalent to one week, thus the data represents 77 weeks. […] The vials are then placed in a temperature-controlled oven or refrigerator/freezer. The compounds are checked daily and any visible changes are noted.

[2] = Solubility in water (statements); assay type: physicochemical
Phase solubility studies = settings: active with HPBCD; calculated using Eq. (1)
[3] = cited from earlier work

| Structure (SMILES) | Stability of Actives at 5° C. ([1]; Week 1) | Stability of Actives at 5° C. ([1]; Week 2) | Stability of Actives at 5° C. ([1]; Week 3) | Stability of Actives at 5° C. ([1]; Week 4) | Stability of Actives at 5° C. ([1]; Week 5) | Stability of Actives at 5° C. ([1]; Week 6) | Stability of Actives at 5° C. ([1]; Week 7) | Stability of Actives at 5° C. ([1]; Week 8) | Stability of Actives at 25° C. ([1]; Week 1) | Stability of Actives at 25° C. ([1]; Week 2) | Stability of Actives at 25° C. ([1]; Week 3) | Stability of Actives at 25° C. ([1]; Week 4) | Stability of Actives at 25° C. ([1]; Week 5) | Stability of Actives at 25° C. ([1]; Week 6) | Stability of Actives at 25° C. ([1]; Week 7) | Stability of Actives at 25° C. ([1]; Week 8) | Stability of Actives at 25° C. ([1]; Week 9) | Stability of Actives at 25° C. ([1]; Week 10) | Stability of Actives at 25° C. ([1]; Week 11) | Stability of Actives at 40° C. ([1]; Week 1) | other results |
| --- | --- | --- | --- | --- | --- | --- | --- | --- | --- | --- | --- | --- | --- | --- | --- | --- | --- | --- | --- | --- | --- |
| Nc1cc(N2CCCCC2)nc(N)[n+]1[O-] [Minoxidil] | 0 | 0 | 0 | 0 | 0 | 0 | 0 | 0 | 0 | 0 | 0 | 0 | 0 | 0 | 0 | 0 | 0 | 0 | 0 | 0 | Stability of Actives at 5° C. ([1]; Week 9): 0; Stability of Actives at 5° C. ([1]; Week 10): 0; Stability of Actives at 5° C. ([1]; Week 11): 0; Stability of Actives at 40° C. ([1]; Week 2): 0; Stability of Actives at 40° C. ([1]; Week 3): 0; Stability of Actives at 40° C. ([1]; Week 4): 0; Stability of Actives at 40° C. ([1]; Week 5): 0; Stability of Actives at 40° C. ([1]; Week 6): 0; Stability of Actives at 40° C. ([1]; Week 7): 0; Stability of Actives at 40° C. ([1]; Week 8): 0; Stability of Actives at 40° C. ([1]; Week 9): 0; Stability of Actives at 40° C. ([1]; Week 10): 0; Stability of Actives at 40° C. ([1]; Week 11): 0 |
| NC(=O)c1cccnc1 [Niacinamide] | 0 | – | – | – | – | – | – | – | 0 | 0 | 0 | 0 | 0 | 0 | 0 | 0 | 0 | 0 | 0 | 0 | solubility in water [2]: strong water solubility; association constant (Kc) for complex formation (Phase solubility studies): 0.79856 M⁻¹ |
| OC[C@H]1O[C@@H]2O[C@H]3[C@H](O)[C@@H](O)[C@@H](O[C@H]4[C@H](O)[C@@H](O)[C@@H](O[C@H]5[C@H](O)[C@@H](O)[C@@H](O[C@H]6[C@H](O)[C@@H](O)[C@@H](O[C@H]7[C@H](O)[C@@H](O)[C@@H](O[C@H]8[C@H](O)[C@@H](O)[C@@H](O[C@H]1[C@H](O)[C@H]2O)O[C@@H]8CO)O[C@@H]7CO)O[C@@H]6CO)O[C@@H]5CO)O[C@@H]4CO)O[C@@H]3CO [β-Cyclodextrin] | – | – | – | – | – | – | – | – | – | – | – | – | – | – | – | – | – | – | – | – | solubility in water ([3]; room temperature): approximately 19 mg/mL |
| CC(O)COC[C@H]1O[C@@H]2O[C@H]3[C@H](O)[C@@H](O)[C@@H](O[C@H]4[C@H](O)[C@@H](O)[C@@H](O[C@H]5[C@H](O)[C@@H](O)[C@@H](O[C@H]6[C@H](O)[C@@H](O)[C@@H](O[C@H]7[C@H](O)[C@@H](O)[C@@H](O[C@H]8[C@H](O)[C@@H](O)[C@@H](O[C@H]1[C@H](O)[C@H]2O)O[C@@H]8COCC(C)O)O[C@@H]7COCC(C)O)O[C@@H]6COCC(C)O)O[C@@H]5COCC(C)O)O[C@@H]4COCC(C)O)O[C@@H]3COCC(C)O (stereo partly drawn) [HPBCD, Hydroxypropyl β-cyclodextrin] | 0 | 0 | 0 | 0 | 0 | 0 | 0 | 0 | 0 | 0 | 0 | 0 | 0 | 0 | 0 | 0 | 0 | 0 | 0 | 0 | Stability of Actives at 5° C. ([1]; Week 9): 0; Stability of Actives at 5° C. ([1]; Week 10): 0; Stability of Actives at 5° C. ([1]; Week 11): 0; Stability of Actives at 40° C. ([1]; Week 2): 0; Stability of Actives at 40° C. ([1]; Week 3): 0; Stability of Actives at 40° C. ([1]; Week 4): 0; Stability of Actives at 40° C. ([1]; Week 5): 0; Stability of Actives at 40° C. ([1]; Week 6): 0; Stability of Actives at 40° C. ([1]; Week 7): 0; Stability of Actives at 40° C. ([1]; Week 8): 0; Stability of Actives at 40° C. ([1]; Week 9): 0; Stability of Actives at 40° C. ([1]; Week 10): 0; Stability of Actives at 40° C. ([1]; Week 11): 0; aqueous solubility [3]: more than 60 g/100 mL |
